Entries after “also recorded” stand apart in the source; their conditions may differ. Like-named read-outs stand apart in the source and are kept apart here.
Legend:
P21 [1] = conditions: NP22890; at C1D8; as previously reported; cited from earlier work
[2] = test system: patients with relapsed/refractory leukemia (AML); assay: NO21279 Phase 1 leukemia trial, clinical response (CR, MLFS, HI, PD); format: in vivo, human
Protocol: The performance of the MDM2 antagonist predictive mRNA response signature is tested in the clinical setting with specimens from the NO21279 leukemia trial (FIG. 1). 28 AML patients treated at the MTD are enrolled and completed pretreatment and C1D10 (cycle 1, day 10) sampling. […] The clinical endpoint in NO21279 was divided into 4 categories: Complete Response (CR), Morphologic Leukemia-Free State (MLFS), Hematologic Improvement (HI), and Progressive Disease (PD). Blood leukemia samples and bone marrow biopsy samples were collected at baseline screening, after a single dose (cycle 1 day 2, C1D2) and on last day of dosing (cycle 1, day 10, C1D10) and isolated via MACS® separation^11. The early pharmacodynamic effect of MDM2 antagonism in blood leukemia samples was assessed by measuring MDM2 RT PCR change between baseline and C1D10. Global gene expression profiles were generated for the peripheral blood leukemia cells and bone marrow biopsy samples obtained at baseline, C1D2 and C1D10.
(§1) In the NO21279 Phase 1 clinical trial, patients with relapsed/refractory leukemia are treated with ascending doses of COMPOUND A. Specimens from subset of patients treated at the MTD (1500 mg BID×10 days) are evaluated as a part of the current gene expression study. Leukemia samples are collected at baseline, cycle 1 day 2 (C1D2) and cycle 1, day 10 (C1D10) and isolated via MACs separation.
as §1, with “RG7112.” for “COMPOUND A.”
Clinical responses are evaluated and are divided into 4 categories: Complete Response (CR), Morphologic Leukemia-Free State (MLFS), Hematologic Improvement (HI), and Progressive Disease (PD). […] In addition to assessments of baseline samples, treatment samples are also evaluated (Cycle 1, Day 10).

[3] = test system: CELLO/CACTEL human cancer cell lines; assay: COMPOUND A In Vitro Assay, whole CELLO/CACTEL panel (IC50 vs mRNA signature score, TP53 status, tumor type); format: cell-based; conditions: for % Res: resistant IC50>=10; for % Sen: sensitive IC50<=1
From the text: To generate an MDM2 antagonist therapy predictive signature, the response of MDM2 antagonist therapy in vitro with gene expression profiling (FIG. 1) is combined. A bank of 287 human cancer cell lines, collectively termed the Cell Lines for Oncology/Chugai ACcumulative Tumour EncycLopedia (CELLO/CACTEL), representing a broad array of diverse human cancer tumor types are subject to evaluation using several high-throughput genomic technology platforms. The mutational status of nucleic acids from each cell line is determined by exome sequencing. Messenger RNA (mRNA) expression levels at baseline, prior to MDM2 antagonist therapy, are obtained via RNA sequencing. MDM2 antagonist therapy COMPOUND A, sometimes referred to herein as RG7112, responses are obtained by assays known to those skilled in the art such as RNA sequencing and microarray measurement using Gene Chip Human Genome U133 Plus 2.0 Array. The MDM2 therapy responses are obtained by high throughout screening assays. Depending on their responses to COMPOUND A these cell lines are classified as either sensitive, defined as IC50<=1, or resistant, defined as IC50>=10.
281 cells are treated with MDM2 antagonists and the IC50 (therapy response) is generated. The cell lines span a broad range of tumor cell types of derivation.
To examine the specific prediction power of the mRNA signature score across the studied tumor types, and to make sure the prediction from the signature score is not confounded by tumor lineage, the signature score within each available tumor type in CELLO (Table 7, 7a) is examined.
The genes are ranked via their fold changes of responder cell lines to non-responder cell lines. Positive genes are defined as those with fold changes higher than 1; whereas negative genes are defined as those with fold changes less than 1. A multivariate logistic regression classifier is then built through a upward model selection procedure to maximize area under the receiver operating characteristic (ROC) curve with 10-fold cross-validation. The mode selection is implemented procedure through R package bestglm.

P53 = assay: NP21280 solid tumor trial, tumor biopsy biomarker (p53 IHC); format: in vivo, human; conditions: at C1D10, p=2.88×10−3
Protocol: (§2) The predictive mRNA signature is also evaluated in two solid tumor trials (FIG. 1). […] In both clinical trials, a biomarker package that enabled assessment of p53 pathway activation is assessed (p53 IHC, p21 IHC, MDM2 mRNA, and Ki67), MDM2 inhibition activates the P53 pathway and decreases cell proliferation.

P21 [4] = assay: NP21280 solid tumor trial, tumor biopsy biomarker (p21 IHC); format: in vivo, human; conditions: p=2.32×10−3
Protocol: as §2

[5] = of 28 AML patients treated at the MTD (1500 mg BID×10 days)
[6] = Adenocarcinoma cell lines, N 21
[7] = Adenocarcinoma, colorectal cell lines, N 7
[8] = Bone marrow cell lines, Number 5
[9] = Breast, mammary gland cell lines, Number 20
[10] = Carcinoma, gastric cell lines, N 5
[11] = Carcinoma, primary ductal cell lines, N 5
[12] = Carcinoma, squamous cell cell lines, N 12
[13] = Carcinoma, urinary bladder, transitional cell carcinoma (TCC) cell lines, N 7
[14] = Intestine, large, colon cell lines, Number 8
[15] = Leukaemia, acute myeloid cell lines, N 5
[16] = Lymphocyte cell lines, Number 6
[17] = Myeloma, multiple cell lines, N 5
[18] = Neuroblastoma (Glioma, neuroblastoma) cell lines, N 6
[19] = Urinary, bladder cell lines, Number 8

In the case of `CCOc1cc(C(C)(C)C)ccc1C1=N[C@@](C)(c2ccc(Cl)cc2)[C@@](C)(c2ccc(Cl)cc2)N1C(=O)N1CCN(CCCS(C)(=O)=O)CC1` [COMPOUND A], the “P21 concentration change from baseline” value (P21 [1]) is listed as “significantly increase”, the “Response, number of patients with CR” value ([2]; all 28 patients, NO21279) is listed as 3CR, and the “Response, number of patients with HI” value ([2]; all 28 patients, NO21279) is listed as 6 HI,. The “Response, number of patients with MLFS” value ([2]; all 28 patients, NO21279) was 4 MLFS,, the “Response, number of patients with PD” value ([2]; all 28 patients, NO21279) was 15 PD and the Response ([2]; individual AML patients (no. 1-28), NO21279, MTD 1500 mg BID×10 days, listed as RG7112) was “CR (Complete Response (CR)); also recorded: MLFS (Morphologic Leukemia-Free State (MLFS)); also recorded: HI (Hematologic Improvement (HI)); also recorded: PD (Progressive Disease (PD))”. The “clinical response: number of patients with Complete Response (CR)” value [2, 5] was 3, the “clinical response: number of patients with Hematologic Improvement (HI)” value [2, 5] was 6 and the “clinical response: number of patients with Morphologic Leukemia-Free State (MLFS)” value [2, 5] was 4. For the same molecule, the “clinical response: number of patients with Progressive Disease (PD)” value [2, 5] was 15, the “N (resistant)” value [3, 6] was 17 and the “N (sensitive)” value [3, 6] was 4. For the same molecule, the “N (resistant)” value [3, 7] was 5, the “N (sensitive)” value [3, 7] was 2 and the “% Res” value [3, 8] was 60.0%. For the same molecule, the “% Sen” value [3, 8] was 40.0%, the “% Res” value ([3]; Brain cell lines, Number 10) was 50.0% and the “% Sen” value ([3]; Brain cell lines, Number 10) was 50.0%. For the same molecule, the “% Res” value [3, 9] was 85.0%, the “% Sen” value [3, 9] was 15.0% and the “N (resistant)” value ([3]; Carcinoma cell lines, N 8) was 6. The “N (sensitive)” value ([3]; Carcinoma cell lines, N 8) was 2, the “N (resistant)” value [3, 10] was 3 and the “N (sensitive)” value [3, 10] was 2. For the same molecule, the “N (resistant)” value [3, 11] was 4, the “N (sensitive)” value [3, 11] was 1 and the “N (resistant)” value [3, 12] was 9. For the same molecule, the “N (sensitive)” value [3, 12] was 3, the “N (resistant)” value [3, 13] was 6 and the “N (sensitive)” value [3, 13] was 1. For the same molecule, the “% Res” value [3, 14] was 62.5%, the “% Sen” value [3, 14] was 37.5% and the “N (resistant)” value [3, 15] was 3. The “N (sensitive)” value [3, 15] was 2, the “% Res” value ([3]; Lung cell lines, Number 41) was 85.4% and the “% Sen” value ([3]; Lung cell lines, Number 41) was 14.6%. For the same molecule, the “% Res” value [3, 16] was 50.0%, the “% Sen” value [3, 16] was 50.0% and the “N (resistant)” value [3, 17] was 2. For the same molecule, the “N (sensitive)” value [3, 17] was 3, the “N (resistant)” value [3, 18] was 3 and the “N (sensitive)” value [3, 18] was 3. For the same molecule, the “% Res” value ([3]; Ovary cell lines, Number 6) was 66.7%, the “% Sen” value ([3]; Ovary cell lines, Number 6) was 33.3% and the “% Res” value ([3]; Pancreas cell lines, Number 9) was 100.0%. The “% Sen” value ([3]; Pancreas cell lines, Number 9) was 0.0%, the “% Res” value ([3]; Skin cell lines, Number 6) was 66.7% and the “% Sen” value ([3]; Skin cell lines, Number 6) was 33.3%. The “% Res” value ([3]; Stomach cell lines, Number 8) was 50.0%, the “% Sen” value ([3]; Stomach cell lines, Number 8) was 50.0% and the “% Res” value [3, 19] was 75.0%. For the same molecule, the “% Sen” value [3, 19] was 25.0%, the “P53 concentration change from baseline” value (P53) was “significantly increase” and the “P21 concentration change from baseline” value (P21 [4]) was “significantly increase”.
